Test results as given in paper PMC3676791, “Synthesis, Cytotoxicity, DNA Binding and Apoptosis of Rhein-Phosphonate Derivatives as Antitumor Agents” (International Journal of Molecular Sciences, 2013).
Where two headings read alike, the source gives them in different places.

Assays:
Hela cells = assay: MTT cytotoxicity assay, Hela; assay type: cell-based, human; settings: 72 h, mean ± SD, three independent experiments
Text: (§1) The following in vitro human cancer cell lines were used: HepG 2 ([…]), Hela (Henrietta Lacks strain of cancer cells), Hct-116 (human colorectal cells), CNE (human nasopharyngeal carcinoma cells), Spca-2 (human lung adenocarcinoma cell line), HUVEC (human umbilical vein endothelial cells). The cell lines (HepG 2, Hela, Hct-116, CNE, Spca-2, HUVEC) were purchased from the Cell Resource Center of Shanghai Institutes for Biological Sciences, The Academy of Sciences of China.
(§2) HepG-2, Hela, Hct-116, CNE, HUVEC cells were cultured in Dulbecco Modified Eagle Medium (DMEM) (Thermo), containing 4.0 mM L-Glutamine and 4,500 mg/L Glucose, supplemented with 10% (v/v) fetal bovine serum (FBS; HyClone, Logan, UT, USA). Spca-2 cells were cultured in RPMI-1640 medium, containing 2.05 mM L-Glutamine without Calcium nitrate, supplemented with 10% (v/v) fetal bovine serum (FBS; HyClone). The cell culture media was supplemented with penicillin/streptomycin at 100 Units/mL as adherent monolayers. Cell cultures were kept in a humidified incubator with 5% CO2 at 37 °C. Stock solutions were prepared in dimethyl sulfoxide (DMSO) and further dilutions were made with fresh culture medium. The concentration of DMSO in the final culture medium was 1%, which had no effect on the cell viability.
(§3) Chemosensitivity was assessed using 3-(4,5-dimethylthiazol-2-yl)-2,5-diphenyl tetrazolium bromide (MTT) assay. Briefly, exponentially growing HepG-2 (2,000–3,000 cells/well), Hela (2,000–3,000 cells/well), Hct-116 (3,000–4,000 cells/well), CNE (2,000–3,000 cells/well), HUVEC (2,000–3,000 cells/well) and Spca-2 […], and then […] of MTT (10 mg/mL) was added. After incubation for 4 h at 37 °C, the purple formazan crystals (i.e., a reduced form of MTT) generated from viable cells were dissolved by adding 100 μL DMSO in each well. The plates were swirled gently for 10 min to dissolve the precipitate, and quantified by measuring the optical density (OD) of the plates at a wavelength of 490 nm on plate reader (TECAN infinite M1000). Each concentration was repeated in three wells and the same experimental conditions were provided for all compounds and MTT analysis was repeated three times for each cell line.

HUVEC cells = assay: MTT cytotoxicity assay, HUVEC normal cells; assay type: cell-based, human; settings: normal cell line, 72 h, mean ± SD, three independent experiments
Text: as §1, §2, §3

ct-DNA [1] = assay: GelRed-ct-DNA competitive fluorescence quenching (Stern-Volmer); assay type: binding, calf; set-up: unit not given here; settings: [GelRed]/[DNA] = 1:10, excitation 350 nm, emission 590 nm
Text: The binding ability of these complexes to ct-DNA was primarily investigated by competitive binding in which they served as an intercalative binding probe in competition with GelRed. GelRed, which is environmentally safe and ultra-sensitive for DNA staining, is a newly developed DNA intercalator to replace the classic DNA intercalator EB. Furthermore, both GelRed and EB bound with ct-DNA emit characteristic fluorescence at 590 nm upon 350 nm UV light excitation.
In competitive binding experiments, GelRed and ct-DNA solutions were pre-incubated for 30 min to ensure sufficient interactions. The concentration ratio of GelRed to DNA was set at [GelRed]/[DNA] = 1:10 to ensure sufficient binding sites of DNA for GelRed. The emission spectra of the GelRed–ctDNA system in the absence and presence of 5b were shown in Figure 2 (for that of 5a and 5c, see Figures S3 and S4). […] The presence of 5b considerably quenched the fluorescence emission of GelRed with the saturation state achieved at the [5b]/[GelRed] ratio of 8:1.
where [DNA] is the DNA concentration in nucleotides, ɛa is the molar extinction coefficient of the compound bound with DNA, ɛf is the extinction coefficient of the free compound, and ɛb is the extinction coefficient of the compound fully bound to DNA. ɛa, ɛf and ɛb are all calculated from the Lambert-Beer’s law (ɛ = A/[compound]). To determine ɛb, it is assumed that the compounds are fully bound with DNA at the point where no further hypochromicity is observed under the addition of ct-DNA, and the apparent absorbance Ab is regarded as the absorbance of only the bound compounds. Ct is the constant concentration of the compounds, and s is the number of binding sites in base pairs. A solution containing 2 × 10^−4 M DNA and 2 × 10^−5 M GelRed ([DNA]/[GelRed] = 10:1) was prepared for GelRed-DNA competitive binding studies. Fluorescence emission spectra were recorded under slit width as 10 nm/10 nm for Ex/Em, respectively. The quenching constant for comparing the efficiency of fluorescence quenching, i.e., Kq, of each compound was obtained by the linear fit of plotting I0/I versus [Q], according to the classic Stern-Volmer equation: I0/I = 1 + Kq × [Q] […] In the fluorescence polarization experiment, each sample was pre-incubated for 40 min before the fluorescence polarization was recorded under the condition of 595 nm emitting wavelength with 350 nm exciting wavelength, and slit width was set as 5 nm/5 nm for Ex/Em, respectively. CD absorption spectra of DNA were measured in TBS at a 100 nm/min scan rate in the wavelength range from 200 to 400 nm, with 1 × 10^−4 M DNA in the absence and presence of each compound of 2 × 10^−5 M, respectively. […]

HepG-2 cells [2] = assay: MTT cytotoxicity assay, HepG-2; assay type: cell-based, human; settings: 72 h, mean ± SD, three independent experiments
Text: as §1, §2, §3

CNE cells = assay: MTT cytotoxicity assay, CNE; assay type: cell-based, human; settings: 72 h, mean ± SD, three independent experiments
Text: as §1, §2, §3

Spca-2 cells = assay: MTT cytotoxicity assay, Spca-2; assay type: cell-based, human; settings: 72 h; mean ± SD, three independent experiments
Text: as §1, §2
as §3, with “Each concentration was repeated in three wells and the same experimental conditions were provided for all compounds and MTT analysis was repeated three times for each cell line.” left out

Hct-116 cells [3] = assay: MTT cytotoxicity assay, Hct-116; assay type: cell-based, human; settings: 72 h; mean ± SD, three independent experiments
Text: as §1, §2
as §3, with “Each concentration was repeated in three wells and the same experimental conditions were provided for all compounds and MTT analysis was repeated three times for each cell line.” left out

ct-DNA [4] = assay: Circular dichroism spectra of ct-DNA; assay type: binding, calf; settings: [5b]/[DNA] ratio 1:10
Text: The circular dichroism (CD) is a useful technique to assess whether the nucleic acids undergo conformational changes as a result of complex formation or changes in environmental conditions. […] This was consistent with the characteristic B conformation of DNA [56].
The decrease in the intensities of both positive and negative bands can usually be observed in the intercalative binding of small molecules to DNA [57].
where [DNA] is the DNA concentration in nucleotides, ɛa is the molar extinction coefficient of the compound bound with DNA, ɛf is the extinction coefficient of the free compound, and ɛb is the extinction coefficient of the compound fully bound to DNA. ɛa, ɛf and ɛb are all calculated from the Lambert-Beer’s law (ɛ = A/[compound]). To determine ɛb, it is assumed that the compounds are fully bound with DNA at the point where no further hypochromicity is observed under the addition of ct-DNA, and the apparent absorbance Ab is regarded as the absorbance of only the bound compounds. […] Fluorescence emission spectra were recorded under slit width as 10 nm/10 nm for Ex/Em, respectively. The quenching constant for comparing the efficiency of fluorescence quenching, i.e., Kq, of each compound was obtained by the linear fit of plotting I0/I versus [Q], according to the classic Stern-Volmer equation: I0/I = 1 + Kq × [Q] […]

HepG-2 cells [5] = assay: Annexin V-FITC/PI apoptosis flow cytometry, HepG-2; assay type: cell-based, human; settings: 24 h
Text: Many anthraquinones such as rhein and emodim induce apoptosis. Flow cytometry was used to investigate analog-induced apoptosis and cell death. The compounds (5a–c) with cytotoxic effects were investigated for the effects on the apoptosis of HepG-2 cells. To clarify the mechanism of rhein derivative-induced cell death, we determined both early and late apoptosis using annexin V-FITC and PI (Propidium iodide) labeling of live cells. Annexin V binds to phosphatidylserine, which is exposed on the cell membrane and is one of the earliest indicators of cellular apoptosis. PI is used as a DNA stain for both flow cytometry to evaluate cell viability or DNA content in cell cycle analysis and microscopy to visualize the nucleus and other DNA containing organelles. It can be used to differentiate necrotic, apoptotic and normal cells. In the present study, the apoptotic cell rates were determined for the HepG-2 cells after stimulation for 24 h by the compounds at different concentrations. […] Compounds 5a and 5b induced apoptosis in 84.4% and 70.4% of the HepG-2 cells. Compounds 5a and 5b are of special interest as these compounds seem to drive HepG-2 cells directly into early apoptosis. Meanwhile, we also investigated for the effects on the apoptosis of HUVEC cells.
Apoptosis was discriminated with the annexin V-FITC/propidium iodide test. […]

HepG-2 cells [6] = assay: Cell cycle analysis by PI flow cytometry, HepG-2; assay type: cell-based, human; settings: 48 h, untreated 4.27%
Text: The cell cycle is the series of events that take place in a cell leading to its division and duplication (replication). The cell cycle consists of four distinct phases: G1 phase, S phase (synthesis), G2 phase (collectively known as interphase) and M phase (mitosis). The G1 stage is the stage when preparation of energy and material for DNA replication occurs. The S stage is the stage when DNA replication occurs. The G2 stage is the stage when preparation for the M stage occurs. The M stage is “mitosis,” and is when nuclear and cytoplasmic division occurs.
The cell lines were treated with indicated concentrations of compounds. After being incubated for 48 h, cells were washed twice with ice-cold PBS, fixed and permeabilized with ice-cold 70% ethanol at −20 °C overnight. The cells were treated with 100 μg/mL RNase A at 37 °C for 30 min after washed with ice-cold PBS, and finally stained with 1 mg/mL propidium iodide (PI) in the dark at 4 °C for 30 min. Analysis was performed with the system software (CellQuest; BD Biosciences).

Hct-116 cells [7] = settings: cited from earlier work

Compound | IC50 (Hela cells; Homo sapiens, HeLa) | IC50 (HUVEC cells; Homo sapiens, HUVEC) | quenching constant Kq (Stern-Volmer) (ct-DNA [1]) | IC50 (HepG-2 cells [2]) | IC50 (CNE cells) | IC50 (Spca-2 cells) | IC50 (Hela cells) | IC50 (Hct-116 cells [3]) | IC50 (HUVEC cells) | percentage decrease in maximal DNA negative CD absorption (ct-DNA [4]; negative band at 245 nm) | percentage decrease in maximal DNA positive CD absorption (ct-DNA [4]; positive band at 280 nm) | apoptosis induced, % of HepG-2 cells (HepG-2 cells [5]) | G2-phase population (HepG-2 cells [6]; HepG-2, 10 μM) | G2-phase population (HepG-2 cells [6]; HepG-2, 20 μM) | G2-phase population (HepG-2 cells [6]; HepG-2, 30 μM) | IC50 (HepG-2 cells [2]; Homo sapiens, HepG2) | IC50 (CNE cells; Homo sapiens, CNE) | IC50 (Hct-116 cells [7]) | G2-phase population (HepG-2 cells [6]; HepG-2, 40 μM)
O=C(O)c1cc(O)c2c(c1)C(=O)c1cccc(O)c1C2=O [Rhein] | > 50 µM | 79.7 ± 5.4 µM | 3.94 × 10^3 | – | – | – | – | – | – | – | – | – | – | – | – | – | – | – | –
CCOP(=O)(OCC)C(C)(CCc1ccccc1)NC(=O)c1cc(O)c2c(c1)C(=O)c1cccc(O)c1C2=O (centres unmarked) [5b, O,O′-Diethyl{[2-(4,5-dihydroxy-9,10-dioxo-9,10-dihydroanthracene)acetamido] (Phenylethyl)ethyl} phosphonate] | – | – | 3.2 × 10^3 | 8.82 ± 0.95 µM | 27.3 ± 3.78 µM | 9.01 ± 0.87 µM | 45.4 µM | 12.7 ± 1.5 µM | > 100 µM | 32.2% | 9.78% | 70.4% | 8.52% | 14.56% | 18.23% | – | – | – | –
O=c1[nH]cc(F)c(=O)[nH]1 [5-Fu, fluorouracil, reference compound] | > 50 µM | – | – | – | – | – | – | – | – | – | – | – | – | – | – | 20.3 ± 2.43 µM | > 50 µM | 4.3 ± 0.52 µM | –
O,O′-Diethyl {[2-(4,5-dihydroxy-9,10-dioxo-9,10-dihydroanthracene) acetamido] (phenyl) methyl} phosphonate [5c] | – | – | 0.753 × 10^3 | 18.2 ± 1.87 µM | 38.3 ± 8.23 µM | 25.1 ± 2.72 µM | > 50 µM | 23.4 ± 3.22 µM | > 100 µM | – | – | – | – | – | – | – | – | – | –
CCOP(=O)(OCC)C(C)(NC(=O)c1cc(O)c2c(c1)C(=O)c1cccc(O)c1C2=O)c1ccc(C)cc1 (centres unmarked) [5a] | – | – | 2.02 × 10^3 | 15.1 ± 1.54 µM | 33.8 ± 2.17 µM | 16.9 ± 1.32 µM | > 50 µM | 30.6 ± 8.75 µM | > 100 µM | – | – | 84.4% | – | 7.23% | 11.08% | – | – | – | 18.05%
